Where a name gives a salt, the structure may show the parent alone.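 Protocol summary: plate cells (96-well), add compound at 5 concentrations, incubate 48 h, interpolate endpoints linearly. The concentration for 50% growth inhibition is given as GI50.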 Calls of active or inactive are those of the source. Cut-off read from the data, not from the text of the source: active = GI50 up to about 1.1 µM and inactive = higher.

Experimental findings from ChEMBL document CHEMBL1201862, “PubChem BioAssay data set” (2004) are described below.

Common to all, as to assay: growth of human tumour cells (NCI), 48 h
In assay [1] the test system is DLD-1.
The subject of assay [2] is DMS-114.
Assay [3] has as its system DMS-273.
For assay [4], the system named is KM-20L2.
Assay [5] deals with SNB-78.
Assay [6] relates to XF498.
The subject of assay [7] is RXF 631.

On to `O=C(/N=C(/Nc1ccccc1)SCCS/C(=N\C(=O)c1ccccc1)Nc1ccccc1)c1ccccc1`, for which the GI50 is 49.8 µM (inactive) in assay [1]; 35.7 µM (inactive) in assay [2]; 78.3 µM (inactive) in assay [3]; 68.9 µM (inactive) in assay [4]; > 100 µM (inactive) in assay [5]; 36.9 µM (inactive) in assay [6].
`COC(=O)C1=CCS(=O)(=O)C1`: the GI50 in assay [1], in assay [2], in assay [4], in assay [7], in assay [5] and in assay [6] was > 100 µM (inactive) each time.
With `O=C1C2C(C(=O)N1Cc1ccccc1)N(Cc1ccccc1)C(=O)N2Cc1ccccc1` (configuration not stated), the GI50 in assay [1], in assay [2], in assay [4], in assay [7], in assay [5] and in assay [6] was > 100 µM (inactive) throughout.
Turning to `CCc1cccc(C)c1NC(=O)CCc1nnc(SC)o1`, the GI50 in assay [1], in assay [2], in assay [3], in assay [4], in assay [5] and in assay [6] was > 100 µM (inactive) throughout.
With `N#CC(/C(=N/NC(N)=S)C(=O)Nc1cccc(Cl)c1)c1ccccc1` (configuration not stated), the GI50 in assay [1], in assay [2], in assay [3], in assay [4], in assay [7] and in assay [6] was > 100 µM (inactive) in each case.
Take `O=C(CC1(O)C(=O)Nc2c(Cl)ccc(Cl)c21)c1ccc(Cl)cc1Cl` (configuration not stated): the GI50 in assay [1] was 28 µM (inactive); in assay [2] it was 19.3 µM (inactive); in assay [3], 16.4 µM (inactive); in assay [4], 35.4 µM (inactive); in assay [5] it was 41.6 µM (inactive); in assay [6] it was 19.8 µM (inactive).
On to `CCCCCCCCc1cc2c(O)c(c1)Cc1cc(CCCCCCCC)cc(c1O)Cc1cc(CCCCCCCC)cc(c1O)Cc1cc(CCCCCCCC)cc(c1O)Cc1cc(CCCCCCCC)cc(c1O)Cc1cc(CCCCCCCC)cc(c1O)C2`, for which the GI50 in assay [1], in assay [2], in assay [4], in assay [7], in assay [5] and in assay [6] was > 100 µM (inactive) in each case.
With `CC(=O)O[C@H]1CC2C=CC3C(CCC31)O2` (some centres not stated), the GI50 in assay [1], in assay [2], in assay [3], in assay [4], in assay [5] and in assay [6] was > 100 µM (inactive) in each case.
Turning to `[O-][S+]1Cc2ccccc2CSS1` (configuration not stated), the GI50 in assay [1] was 18.1 µM (inactive); in assay [2] it was 17.2 µM (inactive); in assay [3], 11.8 µM (inactive); in assay [4], 16.9 µM (inactive); in assay [7], 19.8 µM (inactive); in assay [5], 20 µM (inactive). In addition, in assay [6], the GI50 is 19.7 µM (inactive).
With `O=C1Sc2ccccc2C(=O)N2CSCC12` (configuration not stated), the GI50 in assay [1], in assay [2], in assay [3], in assay [4], in assay [5] and in assay [6] was > 100 µM (inactive) each time.
For `CCCCC1(C(NC(=O)c2ccccc2Cl)c2ccncc2)C(=O)N(c2ccccc2)N(c2ccccc2)C1=O` (configuration not stated), the GI50 in assay [1] was 39.7 µM (inactive); in assay [2], 41.4 µM (inactive); in assay [3], 27 µM (inactive); in assay [4], 59.7 µM (inactive); in assay [5], 56.8 µM (inactive); in assay [6], 35.9 µM (inactive).
Turning to `Cc1cc2c(CC(=O)O)n[nH]c2c(C(=O)O)c1C`, the GI50 in assay [1], in assay [3], in assay [4], in assay [7], in assay [5] and in assay [6] was > 100 µM (inactive) throughout.
In the case of `Oc1cc(-c2ccccc2)nc2cc(Cl)ccc12`, the GI50 in assay [1] is 0.384 µM (active); in assay [2] it was 0.383 µM (active); in assay [3], 0.526 µM (active); in assay [4], 1.52 µM (inactive); in assay [5], 3.34 µM (inactive); in assay [6], 0.304 µM (active).
As for `O=C1CCC2(c3ccc(F)cc3)Nc3cc(Cl)ccc3N12` (configuration not stated), the GI50 was > 100 µM (inactive) in assay [1]; 38.8 µM (inactive) in assay [2]; > 100 µM (inactive) in assay [3]; > 100 µM (inactive) in assay [4]; > 100 µM (inactive) in assay [5]; 20.1 µM (inactive) in assay [6].
`CC(=O)NNc1ncc(C(=O)/C=C/c2ccccc2C)s1`: the GI50 in assay [1], in assay [2], in assay [3], in assay [4], in assay [7] and in assay [5] was > 100 µM (inactive) in each case.
As to `Cc1nccc2c1[nH]c1cc(O)ccc12` [HARMOL HYDROCHLORIDE], the GI50 is 51.1 µM (inactive) in assay [1]; 70.3 µM (inactive) in assay [2]; 54.5 µM (inactive) in assay [3]; > 100 µM (inactive) in assay [4]; > 100 µM (inactive) in assay [7]; > 100 µM (inactive) in assay [5]. Further, the GI50 in assay [6] was 28.4 µM (inactive).
With `O=c1/c(=C/c2ccc(Cl)cc2Cl)sc2nc3ccccc3n12`, the GI50 in assay [1], in assay [2], in assay [3], in assay [4], in assay [7] and in assay [5] was > 100 µM (inactive) in each case. The GI50 in assay [6] was > 100 µM (inactive).
In the case of `COc1ccc(C2(CN(C)C)COc3cc(OC)c(OC)cc3C2=O)cc1OC` (configuration not stated), the GI50 in assay [1] was 20.1 µM (inactive); in assay [2] it was 23.6 µM (inactive); in assay [4] it was > 100 µM (inactive); in assay [7] it was 75.7 µM (inactive); in assay [5], 41.3 µM (inactive); in assay [6], 30.1 µM (inactive).
On to `CCC1CCC2CCCC(C)N12` (configuration not stated), for which the GI50 in assay [1], in assay [2], in assay [3], in assay [4], in assay [7] and in assay [6] was > 100 µM (inactive) in each case.
Regarding `CC(C)/C=C1\CCC(CN2CCCC2)C1=O` (configuration not stated), the GI50 in assay [1] is 3.88 µM (inactive); in assay [2] it was 12.9 µM (inactive); in assay [4] it was 18.5 µM (inactive); in assay [5], 21 µM (inactive); in assay [6], 16.6 µM (inactive).
